pIC50: −log10 of the molar value. Structures can show the parent of a compound that is named as a salt.
Target: T1, human CGT (ceramide galactosyltransferase), CHO/CGT lysate (Homo sapiens, UniProt Q16880)
T1 construct: Full-length human CGT cDNA was cloned into the BamH1/Xho1 site of pcDNA3.1 (+); expressed in transfected cells; host or cells: Chinese hamster ovary (CHO) cells; lysate prepared with M-PER
T1 sequence (Q16880 21-541): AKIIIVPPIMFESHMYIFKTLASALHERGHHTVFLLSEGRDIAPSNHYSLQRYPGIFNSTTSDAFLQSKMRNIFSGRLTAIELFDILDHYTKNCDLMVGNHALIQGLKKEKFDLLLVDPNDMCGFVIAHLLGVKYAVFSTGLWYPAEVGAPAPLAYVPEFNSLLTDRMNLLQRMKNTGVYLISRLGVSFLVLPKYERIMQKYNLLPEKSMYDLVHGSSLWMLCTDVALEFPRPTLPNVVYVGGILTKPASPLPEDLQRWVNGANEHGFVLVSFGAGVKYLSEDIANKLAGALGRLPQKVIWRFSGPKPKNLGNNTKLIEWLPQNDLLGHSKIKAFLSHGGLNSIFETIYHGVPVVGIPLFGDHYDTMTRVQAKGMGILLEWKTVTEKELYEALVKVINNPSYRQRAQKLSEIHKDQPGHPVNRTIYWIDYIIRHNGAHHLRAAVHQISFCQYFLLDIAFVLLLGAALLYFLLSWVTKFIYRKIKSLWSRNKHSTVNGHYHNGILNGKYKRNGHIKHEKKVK
Assay: CGT enzyme assay, RapidFire/MS/MS readout (Table 1 ranges with one asterisk *)
Format: biochemical
Conditions: RapidFire method (range with one asterisk *)
Summary of the method: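 Lysate (4 μg) of CHO cells transfected with full-length human CGT incubated 1 h at 37 °C with compound (0.001–50 μM) in pH 7.2 HEPES buffer with 10 μM C6-NBD-dihydro-ceramide, 17.5 μM UDP-galactose, Mg2+/Mn2+, CHAPS, BSA, 0.5% DMSO; ** set also contained 0.01% Tween 80. Product quantified by RapidFire/MS/MS, normalized to internal standard; IC50 from sigmoidal variable-slope fits.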

Compound	pIC50
NC1CCN(C(=O)[C@H](NS(=O)(=O)c2ccc3cc(OC4CCCC4)ccc3c2)C(F)(F)c2ccc(-c3ccc(Cl)s3)cc2)CC1 [Compound 112-2, (S)—N-(3-(4-aminopiperidin-1-yl)-1-(4-(5-chlorothiophen-2-yl)phenyl)-1,1-difluoro-3-oxopropan-2-yl)-6-(cyclopentyloxy)naphthalene-2-sulfonamide trifluoroacetate]	5.00 to 6.00
NC1CC2CCC(C1)N2C(=O)[C@@H](NS(=O)(=O)c1ccc(OCC2CCCCC2)cc1)C(F)(F)c1cccc(Oc2ccccc2)c1 (stereo partly drawn) [Compound 113-1, N-((2R)-3-(3-amino-8-azabicyclo[3.2.1]octan-8-yl)-1,1-difluoro-3-oxo-1-(3-phenoxyphenyl)propan-2-yl)-4-(cyclohexylmethoxy)benzenesulfonamide trifluoroacetate]	> 6.00
NC1CC2CCC(C1)N2C(=O)[C@H](NS(=O)(=O)c1ccc(OCC2CCCCC2)cc1)C(F)(F)c1cccc(Oc2ccccc2)c1 (stereo partly drawn) [Compound 113-2, N-((2S)-3-(3-amino-8-azabicyclo[3.2.1]octan-8-yl)-1,1-difluoro-3-oxo-1-(3-phenoxyphenyl)propan-2-yl)-4-(cyclohexylmethoxy) benzenesulfonamide trifluoroacetate]	5.00 to 6.00
CCOc1ccc(C(F)(F)[C@@H](C(=O)N2C3CCC2CC(N)C3)N(C)S(=O)(=O)c2ccc3cc(OC4CCCC4)ccc3c2)cc1 (stereo partly drawn) [Compound 114-1, N-((2R)-3-(3-amino-8-azabicyclo[3.2.1]octan-8-yl)-1-(4-ethoxyphenyl)-1,1-difluoro-3-oxopropan-2-yl)-6-(cyclopentyloxy)-N-methylnaphthalene-2-sulfonamide]	5.00 to 6.00
CCOc1ccc(C(F)(F)[C@H](C(=O)N2C3CCC2CC(N)C3)N(C)S(=O)(=O)c2ccc3cc(OC4CCCC4)ccc3c2)cc1 (stereo partly drawn) [Compound 114-2, N-((2S)-3-(3-amino-8-azabicyclo[3.2.1]octan-8-yl)-1-(4-ethoxyphenyl)-1,1-difluoro-3-oxopropan-2-yl)-6-(cyclopentyloxy)-N-methylnaphthalene-2-sulfonamide]	4.52 to 5.00
CN([C@H](C(=O)N1C2CCC1CC(N)C2)C(F)(F)c1ccc(OCCN2CCOCC2)cc1)S(=O)(=O)c1ccc2cc(OC3CCCC3)ccc2c1 (stereo partly drawn) [Compound 115-1, N-((2R)-3-(3-amino-8-azabicyclo[3.2.1]octan-8-yl)-1,1-difluoro-1-(4-(2-morpholinoethoxy)phenyl)-3-oxopropan-2-yl)-6-(cyclopentyloxy)-N-methylnaphthalene-2-sulfonamide]	5.00 to 6.00
CN([C@@H](C(=O)N1C2CCC1CC(N)C2)C(F)(F)c1ccc(OCCN2CCOCC2)cc1)S(=O)(=O)c1ccc2cc(OC3CCCC3)ccc2c1 (stereo partly drawn) [Compound 115-2, N-((2S)-3-(3-amino-8-azabicyclo[3.2.1]octan-8-yl)-1,1-difluoro-1-(4-(2-morpholinoethoxy)phenyl)-3-oxopropan-2-yl)-6-(cyclopentyloxy)-N-methylnaphthalene-2-sulfonamide]	4.52 to 5.00
CN([C@H](C(=O)N1C2CCC1CC(N)C2)C(F)(F)c1ccc(OCCN2CCCCC2)cc1)S(=O)(=O)c1ccc2cc(OC3CCCC3)ccc2c1 (stereo partly drawn) [Compound 116-1, N-((2R)-3-(3-amino-8-azabicyclo[3.2.1]octan-8-yl)-1,1-difluoro-3-oxo-1-(4-(2-(piperidin-1-yl)ethoxy)phenyl)propan-2-yl)-6-(cyclopentyloxy)-N-methylnaphthalene-2-sulfonamide]	4.00 to 4.52
CN([C@@H](C(=O)N1C2CCC1CC(N)C2)C(F)(F)c1ccc(OCCN2CCCCC2)cc1)S(=O)(=O)c1ccc2cc(OC3CCCC3)ccc2c1 (stereo partly drawn) [Compound 116-2, N-((2S)-3-(3-amino-8-azabicyclo[3.2.1]octan-8-yl)-1,1-difluoro-3-oxo-1-(4-(2-(piperidin-1-yl)ethoxy)phenyl)propan-2-yl)-6-(cyclopentyloxy)-N-methylnaphthalene-2-sulfonamide]	4.00 to 4.52
NC1CCN(C(=O)[C@@H](NS(=O)(=O)c2ccc(OCC3CCCCC3)cc2)C(F)(F)c2ccc(-c3ccc(Cl)s3)cc2)CC1 [Compound 117-1, (R)—N-(3-(4-aminopiperidin-1-yl)-1-(4-(5-chlorothiophen-2-yl)phenyl)-1,1-difluoro-3-oxopropan-2-yl)-4-(cyclohexylmethoxy)benzenesulfonamide]	5.00 to 6.00
NC1CCN(C(=O)[C@H](NS(=O)(=O)c2ccc(OCC3CCCCC3)cc2)C(F)(F)c2ccc(-c3ccc(Cl)s3)cc2)CC1 [Compound 117-2, (S)—N-(3-(4-aminopiperidin-1-yl)-1-(4-(5-chlorothiophen-2-yl)phenyl)-1,1-difluoro-3-oxopropan-2-yl)-4-(cyclohexylmethoxy) benzenesulfonamide]	4.52 to 5.00
CCCCOc1cc(C(F)(F)[C@H](NS(=O)(=O)c2ccc3cc(OC4CCCC4)ccc3c2)C(=O)N2C3CCC2CC(N)C3)ccc1Cl (stereo partly drawn) [Compound 118-1, N-((2R)-3-(3-amino-8-azabicyclo[3.2.1]octan-8-yl)-1-(3-butoxy-4-chlorophenyl)-1,1-difluoro-3-oxopropan-2-yl)-6-(cyclopentyloxy)naphthalene-2-sulfonamide]	> 6.00
CCCCOc1cc(C(F)(F)[C@@H](NS(=O)(=O)c2ccc3cc(OC4CCCC4)ccc3c2)C(=O)N2C3CCC2CC(N)C3)ccc1Cl (stereo partly drawn) [Compound 118-2, N-((2S)-3-(3-amino-8-azabicyclo[3.2.1]octan-8-yl)-1-(3-butoxy-4-chlorophenyl)-1,1-difluoro-3-oxopropan-2-yl)-6-(cyclopentyloxy) naphthalene-2-sulfonamide]	5.00 to 6.00
CCCCOc1cc(C(F)(F)[C@H](NS(=O)(=O)c2ccc(OCC3CCCCC3)cc2)C(=O)N2C3CCC2CC(N)C3)ccc1Cl (stereo partly drawn) [Compound 120-1, N-((2R)-3-(3-amino-8-azabicyclo[3.2.1]octan-8-yl)-1-(3-butoxy-4-chlorophenyl)-1,1-difluoro-3-oxopropan-2-yl)-4-(cyclohexylmethoxy) benzenesulfonamide]	> 6.00
CCCCOc1cc(C(F)(F)[C@@H](NS(=O)(=O)c2ccc(OCC3CCCCC3)cc2)C(=O)N2C3CCC2CC(N)C3)ccc1Cl (stereo partly drawn) [Compound 120-2, N-((2S)-3-(3-amino-8-azabicyclo[3.2.1]octan-8-yl)-1-(3-butoxy-4-chlorophenyl)-1,1-difluoro-3-oxopropan-2-yl)-4-(cyclohexylmethoxy)benzenesulfonamide]	5.00 to 6.00
NC1CC2CCC(C1)N2C(=O)[C@@H](NS(=O)(=O)c1ccc2cc(OC3CCCC3)ccc2c1)C(F)(F)c1ccc(Oc2ccc(Cl)cc2)cc1 (stereo partly drawn) [Compound 121-1, N-((2R)-3-(3-amino-8-azabicyclo[3.2.1]octan-8-yl)-1-(4-(4-chlorophenoxy)phenyl)-1,1-difluoro-3-oxopropan-2-yl)-6-(cyclopentyloxy) naphthalene-2-sulfonamide]	> 6.00
NC1CC2CCC(C1)N2C(=O)[C@H](NS(=O)(=O)c1ccc2cc(OC3CCCC3)ccc2c1)C(F)(F)c1ccc(Oc2ccc(Cl)cc2)cc1 (stereo partly drawn) [Compound 121-2, N-((2S)-3-(3-amino-8-azabicyclo[3.2.1]octan-8-yl)-1-(4-(4-chlorophenoxy)phenyl)-1,1-difluoro-3-oxopropan-2-yl)-6-(cyclopentyloxy)naphthalene-2-sulfonamide]	5.00 to 6.00
N[C@@H]1CCCN(C(=O)[C@@H](NS(=O)(=O)c2ccc3cc(OC4CCCC4)ccc3c2)C(F)(F)c2ccc(Br)cc2)C1 [Compound 122-1, N—((R)-3-((R)-3-aminopiperidin-1-yl)-1-(4-bromophenyl)-1,1-difluoro-3-oxopropan-2-yl)-6-(cyclopentyloxy)naphthalene-2-sulfonamide]	5.00 to 6.00
N[C@@H]1CCCN(C(=O)[C@H](NS(=O)(=O)c2ccc3cc(OC4CCCC4)ccc3c2)C(F)(F)c2ccc(Br)cc2)C1 [Compound 122-2, N—((S)-3-((R)-3-aminopiperidin-1-yl)-1-(4-bromophenyl)-1,1-difluoro-3-oxopropan-2-yl)-6-(cyclopentyloxy)naphthalene-2-sulfonamide]	4.00 to 4.52
COc1cc(C(F)(F)[C@H](NS(=O)(=O)c2ccc3cc(OC4CCCC4)ccc3c2)C(=O)N2CCC(N)CC2)ccc1Cl [Compound 123-1, (R)—N-(3-(4-aminopiperidin-1-yl)-1-(4-chloro-3-methoxyphenyl)-1,1-difluoro-3-oxopropan-2-yl)-6-(cyclopentyloxy)naphthalene-2-sulfonamide]	> 6.00
COc1cc(C(F)(F)[C@@H](NS(=O)(=O)c2ccc3cc(OC4CCCC4)ccc3c2)C(=O)N2CCC(N)CC2)ccc1Cl [Compound 123-2, (S)—N-(3-(4-aminopiperidin-1-yl)-1-(4-chloro-3-methoxyphenyl)-1,1-difluoro-3-oxopropan-2-yl)-6-(cyclopentyloxy)naphthalene-2-sulfonamide]	5.00 to 6.00
COc1cc(C(F)(F)[C@H](NS(=O)(=O)c2ccc3cc(OC4CCCC4)ccc3c2)C(=O)N2C3CCC2CC(N)C3)ccc1Cl (stereo partly drawn) [Compound 124-1, N-((2R)-3-(3-amino-8-azabicyclo[3.2.1]octan-8-yl)-1-(4-chloro-3-methoxyphenyl)-1,1-difluoro-3-oxopropan-2-yl)-6-(cyclopentyloxy)naphthalene-2-sulfonamide]	> 6.00

Reference: patent US20190322676A1, “CERAMIDE GALACTOSYLTRANSFERASE INHIBITORS FOR THE TREATMENT OF DISEASE” (BioMarin Pharmaceutical Inc., priority 2016, published 2019)
